Assay results taken from ChEMBL document CHEMBL1201862, “PubChem BioAssay data set” (2004).
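48-hour exposure; five concentrations; linearly interpolated endpoints. At the GI50, growth is halved.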 Active and inactive are the calls of the source. Rule as the data show it: active = GI50 up to about 1.1 µM and inactive = higher.

Assays:
Test in all cases: DTP human tumour cell line panel, 48 h
786-0 = test system: 786-0
A498 = test system: A498
A549 = test system: A549
ACHN = test system: ACHN
BT-549 = test system: BT-549
CAKI-1 = test system: CAKI-1
CCRF-CEM = test system: CCRF-CEM
COLO 205 = test system: COLO 205
DU-145 = test system: DU-145
EKVX = test system: EKVX
HCC 2998 = test system: HCC 2998
HCT-116 = test system: HCT-116
HCT-15 = test system: HCT-15
HL-60 = test system: HL-60
HOP-62 = test system: HOP-62
HOP-92 = test system: HOP-92
HT-29 = test system: HT-29
Hs-578T = test system: Hs-578T
IGROV-1 = test system: IGROV-1
K562 = test system: K562
KM12 = test system: KM12
LOX IMVI = test system: LOX IMVI
M14 = test system: M14
MCF7 = test system: MCF7
MDA-MB-435 = test system: MDA-MB-435
MDA-N = test system: MDA-N
MOLT-4 = test system: MOLT-4
Malme-3M = test system: Malme-3M
NCI-H226 = test system: NCI-H226
NCI-H23 = test system: NCI-H23
NCI-H460 = test system: NCI-H460
NCI-H522 = test system: NCI-H522
NCI/ADR-RES = test system: NCI/ADR-RES
OVCAR-3 = test system: OVCAR-3
OVCAR-4 = test system: OVCAR-4
OVCAR-5 = test system: OVCAR-5
OVCAR-8 = test system: OVCAR-8
PC-3 = test system: PC-3
RPMI-8226 = test system: RPMI-8226
RXF 393 = test system: RXF 393
SF-268 = test system: SF-268
SF-295 = test system: SF-295
SF-539 = test system: SF-539
SK-MEL-28 = test system: SK-MEL-28
SK-MEL-5 = test system: SK-MEL-5
SN12C = test system: SN12C
SNB-19 = test system: SNB-19
SNB-75 = test system: SNB-75
SR = test system: SR
SW-620 = test system: SW-620
T47D = test system: T47D
TK-10 = test system: TK-10
U-251 = test system: U-251
UACC-257 = test system: UACC-257
UACC-62 = test system: UACC-62
UO-31 = test system: UO-31
MDA-MB-231 = test system: MDA-MB-231
SK-OV-3 = test system: SK-OV-3
SK-MEL-2 = test system: SK-MEL-2

O=c1[nH]nc(-c2ccccc2)n1/N=C/c1ccncc1
GI50 (786-0): > 100 µM (inactive) | GI50 (A498): 24.9 µM (inactive) | GI50 (A549): > 100 µM (inactive) | GI50 (ACHN): > 100 µM (inactive) | GI50 (BT-549): 32.6 µM (inactive) | GI50 (CAKI-1): > 100 µM (inactive) | GI50 (CCRF-CEM): > 100 µM (inactive) | GI50 (COLO 205): 54 µM (inactive) | GI50 (DU-145): > 100 µM (inactive) | GI50 (EKVX): > 100 µM (inactive) | GI50 (HCC 2998): > 100 µM (inactive) | GI50 (HCT-116): 53.6 µM (inactive) | GI50 (HCT-15): > 100 µM | GI50 (HL-60): > 100 µM (inactive) | GI50 (HOP-62): > 100 µM (inactive) | GI50 (HOP-92): > 100 µM (inactive) | GI50 (HT-29): > 100 µM (inactive) | GI50 (Hs-578T): 26.2 µM (inactive) | GI50 (IGROV-1): > 100 µM (inactive) | GI50 (K562): > 100 µM (inactive) | GI50 (KM12): > 100 µM (inactive) | GI50 (LOX IMVI): > 100 µM (inactive) | GI50 (M14): > 100 µM (inactive) | GI50 (MCF7): > 100 µM (inactive) | GI50 (MDA-MB-435): > 100 µM (inactive) | GI50 (MDA-N): > 100 µM (inactive) | GI50 (MOLT-4): > 100 µM (inactive) | GI50 (Malme-3M): > 100 µM (inactive) | GI50 (NCI-H226): 97.7 µM (inactive) | GI50 (NCI-H23): > 100 µM (inactive) | GI50 (NCI-H460): > 100 µM (inactive) | GI50 (NCI-H522): > 100 µM (inactive) | GI50 (NCI/ADR-RES): > 100 µM (inactive) | GI50 (OVCAR-3): > 100 µM (inactive) | GI50 (OVCAR-4): > 100 µM (inactive) | GI50 (OVCAR-5): 37.7 µM (inactive) | GI50 (OVCAR-8): > 100 µM (inactive) | GI50 (PC-3): > 100 µM (inactive) | GI50 (RPMI-8226): > 100 µM (inactive) | GI50 (RXF 393): 62.5 µM (inactive) | GI50 (SF-268): > 100 µM (inactive) | GI50 (SF-295): > 100 µM (inactive) | GI50 (SF-539): 61.8 µM (inactive) | GI50 (SK-MEL-28): > 100 µM (inactive) | GI50 (SK-MEL-5): 44.7 µM (inactive) | GI50 (SN12C): > 100 µM (inactive) | GI50 (SNB-19): > 100 µM (inactive) | GI50 (SNB-75): 81.3 µM (inactive) | GI50 (SR): 74.1 µM (inactive) | GI50 (SW-620): > 100 µM (inactive) | GI50 (T47D): > 100 µM (inactive) | GI50 (TK-10): > 100 µM (inactive) | GI50 (U-251): > 100 µM (inactive) | GI50 (UACC-257): > 100 µM (inactive) | GI50 (UACC-62): > 100 µM (inactive) | GI50 (UO-31): 46.3 µM (inactive)

COc1ccc(/C(C)=N/NC(=O)c2ccncc2)c(OC)c1
GI50 (786-0): > 10 µM (inactive) | GI50 (A498): > 10 µM (inactive) | GI50 (A549): > 10 µM (inactive) | GI50 (BT-549): > 10 µM (inactive) | GI50 (CAKI-1): > 10 µM (inactive) | GI50 (CCRF-CEM): > 10 µM (inactive) | GI50 (COLO 205): > 10 µM (inactive) | GI50 (DU-145): > 10 µM (inactive) | GI50 (EKVX): > 10 µM (inactive) | GI50 (HCC 2998): > 10 µM (inactive) | GI50 (HCT-15): > 10 µM | GI50 (HL-60): > 10 µM (inactive) | GI50 (HOP-62): > 10 µM (inactive) | GI50 (HOP-92): > 10 µM (inactive) | GI50 (Hs-578T): > 10 µM (inactive) | GI50 (IGROV-1): > 10 µM (inactive) | GI50 (K562): > 10 µM (inactive) | GI50 (KM12): > 10 µM (inactive) | GI50 (LOX IMVI): > 10 µM (inactive) | GI50 (M14): > 10 µM (inactive) | GI50 (MCF7): > 10 µM (inactive) | GI50 (MDA-MB-231): > 10 µM (inactive) | GI50 (MDA-N): > 10 µM (inactive) | GI50 (MOLT-4): > 10 µM (inactive) | GI50 (Malme-3M): > 10 µM (inactive) | GI50 (NCI-H226): > 10 µM (inactive) | GI50 (NCI-H23): > 10 µM (inactive) | GI50 (NCI-H460): > 10 µM (inactive) | GI50 (NCI/ADR-RES): > 10 µM (inactive) | GI50 (OVCAR-4): > 10 µM (inactive) | GI50 (OVCAR-8): > 10 µM (inactive) | GI50 (RPMI-8226): > 10 µM (inactive) | GI50 (SF-268): > 10 µM (inactive) | GI50 (SF-539): > 10 µM (inactive) | GI50 (SK-MEL-28): > 10 µM (inactive) | GI50 (SK-MEL-5): > 10 µM (inactive) | GI50 (SK-OV-3): > 10 µM (inactive) | GI50 (SN12C): > 10 µM (inactive) | GI50 (SNB-75): > 10 µM (inactive) | GI50 (SR): > 10 µM (inactive) | GI50 (SW-620): > 10 µM (inactive) | GI50 (T47D): > 10 µM (inactive) | GI50 (TK-10): > 10 µM (inactive) | GI50 (U-251): > 10 µM (inactive) | GI50 (UACC-257): > 10 µM (inactive) | GI50 (UACC-62): > 10 µM (inactive) | GI50 (UO-31): > 10 µM (inactive)

COc1ccc(/N=C(\C)c2ccncc2)cc1
GI50 (786-0): > 100 µM (inactive) | GI50 (A498): 40.9 µM (inactive) | GI50 (A549): 47.2 µM (inactive) | GI50 (ACHN): 34.7 µM (inactive) | GI50 (BT-549): 64 µM (inactive) | GI50 (CAKI-1): > 100 µM (inactive) | GI50 (CCRF-CEM): > 100 µM (inactive) | GI50 (COLO 205): > 100 µM (inactive) | GI50 (DU-145): 83 µM (inactive) | GI50 (EKVX): > 100 µM (inactive) | GI50 (HCC 2998): > 100 µM (inactive) | GI50 (HCT-116): > 100 µM (inactive) | GI50 (HCT-15): 32.1 µM | GI50 (HOP-62): > 100 µM (inactive) | GI50 (HOP-92): > 100 µM (inactive) | GI50 (HT-29): > 100 µM (inactive) | GI50 (Hs-578T): > 100 µM (inactive) | GI50 (IGROV-1): > 100 µM (inactive) | GI50 (K562): > 100 µM (inactive) | GI50 (KM12): > 100 µM (inactive) | GI50 (LOX IMVI): > 100 µM (inactive) | GI50 (M14): > 100 µM (inactive) | GI50 (MCF7): 66.7 µM (inactive) | GI50 (MDA-MB-231): > 100 µM (inactive) | GI50 (MDA-MB-435): 26.9 µM (inactive) | GI50 (MDA-N): > 100 µM (inactive) | GI50 (MOLT-4): > 100 µM (inactive) | GI50 (Malme-3M): > 100 µM (inactive) | GI50 (NCI-H226): 93.3 µM (inactive) | GI50 (NCI-H23): 89.3 µM (inactive) | GI50 (NCI-H460): > 100 µM (inactive) | GI50 (NCI-H522): > 100 µM (inactive) | GI50 (NCI/ADR-RES): > 100 µM (inactive) | GI50 (OVCAR-3): > 100 µM (inactive) | GI50 (OVCAR-4): > 100 µM (inactive) | GI50 (OVCAR-5): 72.8 µM (inactive) | GI50 (OVCAR-8): > 100 µM (inactive) | GI50 (PC-3): > 100 µM (inactive) | GI50 (RPMI-8226): 16.7 µM (inactive) | GI50 (RXF 393): > 100 µM (inactive) | GI50 (SF-268): 50.6 µM (inactive) | GI50 (SF-295): > 100 µM (inactive) | GI50 (SF-539): 21 µM (inactive) | GI50 (SK-MEL-28): > 100 µM (inactive) | GI50 (SK-MEL-2): > 100 µM (inactive) | GI50 (SK-MEL-5): 94.8 µM (inactive) | GI50 (SK-OV-3): > 100 µM (inactive) | GI50 (SN12C): > 100 µM (inactive) | GI50 (SNB-19): > 100 µM (inactive) | GI50 (SNB-75): > 100 µM (inactive) | GI50 (SW-620): 86.5 µM (inactive) | GI50 (T47D): > 100 µM (inactive) | GI50 (TK-10): > 100 µM (inactive) | GI50 (U-251): > 100 µM (inactive) | GI50 (UACC-257): > 100 µM (inactive) | GI50 (UACC-62): > 100 µM (inactive) | GI50 (UO-31): 24.2 µM (inactive)
